Reference: the NIST ThermoML archive (doi:10.1016/j.jct.2013.06.003)
“And” between values parts separate entries of the source, which are not always exact repeats. Identical values can stand only once.

Assays:
[1] = Crystal; for Normal melting temperature: DTA; for vapor or sublimation pressure: Calculated from knudsen effusion weight loss
[2] = Molar enthalpy of transition or fusion; conditions: Crystal; DSC

N#Cc1ccccc1Br [2-bromobenzonitrile]
Conditions | Molar enthalpy of transition or fusion [kcal/mol] | Normal melting temperature [°C]
[1] | – | 54.0
[2] | 4.11 | –

N#Cc1ccccc1I [2-iodobenzonitrile]
[1]
Conditions | vapor or sublimation pressure
283.19 K | 0.000104 kPa and 0.000103 kPa and 0.000101 kPa
285.15 K | 0.000128 kPa and 0.000129 kPa and 0.000125 kPa
287.17 K | 0.00016 kPa and 0.000159 kPa and 0.000168 kPa
288.91 K | 0.000199 kPa and 0.000205 kPa
291.13 K | 0.000263 kPa and 0.000257 kPa and 0.000268 kPa
293.15 K | 0.000336 kPa and 0.000341 kPa and 0.000346 kPa
295.15 K | 0.000419 kPa and 0.000414 kPa and 0.000427 kPa
297.15 K | 0.000521 kPa and 0.000547 kPa
299.12 K | 0.000651 kPa and 0.00066 kPa and 0.000671 kPa
301.15 K | 0.000857 kPa and 0.000861 kPa and 0.000864 kPa
303.17 K | 0.00103 kPa

Conditions | Molar enthalpy of transition or fusion [kcal/mol] | Normal melting temperature [°C]
[1] | – | 53.54
[2] | 3.97 | –

N#Cc1cccc(Br)c1 [3-bromobenzonitrile]
Conditions | Molar enthalpy of transition or fusion [kcal/mol]
[2] | 3.97

N#Cc1cccc(I)c1 [3-iodobenzonitrile]
[1]
Conditions | vapor or sublimation pressure
276.18 K | 9.88e-05 kPa and 0.0001 kPa and 9.93e-05 kPa
278.16 K | 0.000122 kPa and 0.000125 kPa and 0.000123 kPa
280.26 K | 0.000161 kPa and 0.00016 kPa and 0.000163 kPa
282.15 K | 0.000204 kPa and 0.000206 kPa and 0.000207 kPa
284.15 K | 0.000269 kPa
286.17 K | 0.00034 kPa and 0.000339 kPa and 0.000336 kPa
288.17 K | 0.000437 kPa and 0.000432 kPa and 0.000441 kPa
290.14 K | 0.000539 kPa and 0.000537 kPa and 0.00054 kPa
292.13 K | 0.00069 kPa and 0.000686 kPa and 0.000699 kPa
294.21 K | 0.000869 kPa and 0.000876 kPa and 0.000882 kPa
296.14 K | 0.0011 kPa and 0.00111 kPa

Conditions | Molar enthalpy of transition or fusion [kcal/mol] | Normal melting temperature [°C]
[1] | – | 40.12
[2] | 3.61 | –

N#Cc1ccc(I)cc1 [4-iodobenzonitrile]
[1]
Conditions | vapor or sublimation pressure
294.17 K | 0.000111 kPa and 0.000109 kPa and 0.00011 kPa
296.2 K | 0.000141 kPa and 0.000143 kPa
298.18 K | 0.000182 kPa
300.18 K | 0.000226 kPa and 0.000228 kPa and 0.000223 kPa
302.26 K | 0.000294 kPa and 0.000296 kPa
304.29 K | 0.000353 kPa and 0.000365 kPa and 0.000368 kPa
306.28 K | 0.000452 kPa and 0.000454 kPa and 0.000444 kPa
308.2 K | 0.000562 kPa and 0.000563 kPa and 0.000565 kPa
310.15 K | 0.000715 kPa and 0.000717 kPa and 0.000701 kPa
312.16 K | 0.000889 kPa and 0.000882 kPa
314.05 K | 0.00108 kPa and 0.00106 kPa

Conditions | Molar enthalpy of transition or fusion [kcal/mol] | Normal melting temperature [°C]
[1] | – | 125.46
[2] | 5.64 | –

N#Cc1ccc(Br)cc1 [4-bromobenzonitrile]
Conditions | Molar enthalpy of transition or fusion [kcal/mol]
[2] | 4.95
